Data set [1] deals with larvae of the mustard beetle (Phaedon cochleariae). The data set is described as follows: Phaedon larvae test (cabbage leaves dipped). Type of data set: in vivo. Particulars: for Kill rate in % after 7 d: leaf dip, Brassica oleracea. As to the method:
[table] To produce a suitable preparation of active compound, 1 part by weight of active compound is mixed with the stated amount of solvent and the stated amount of emulsifier, and the concentrate is diluted with water to the desired concentration. Cabbage leaves (Brassica oleracea) are treated by being dipped into the active compound preparation of the desired concentration and populated with larvae of the mustard beetle (Phaedon cochleariae) while the leaves are still moist. After the desired period of time, the kill in % is determined. 100% means that all beetle larvae have been killed; 0% means that none of the beetle larvae have been killed.

Data set [2] can be described thus: logP determination by HPLC on reversed-phase column (C 18), EEC Directive 79/831 Annex V.A8. The format is physicochemical. As to conditions: reversed-phase C 18, 43° C., acid range (0.1% aqueous phosphoric acid, acetonitrile), marked a). The method, then:
a) The logP values given in table 1 were determined in accordance with EEC Directive 79/831 Annex V.A8 by HPLC (High Performance Liquid Chromatography) on a reversed-phase column (C 18). Temperature: 43° C. (a) Mobile phases for the determination in the acid range: 0.1% aqueous phosphoric acid, acetonitrile; linear gradient from 10% acetonitrile to 90% acetonitrile—corresponding measurement results are marked a) in table 1. Calibration was carried out using unbranched alkan-2-ones (having 3 to 16 carbon atoms) with known logP values (determination of the logP values by the retention times using linear interpolation between two successive alkanones).

For data set [3], the system named is larvae of the mustard beetle (Phaedon cochleariae). Nature of the data set: Phaedon test (spray treatment). The format is in vivo. Particulars: for Kill rate in % after 7 d: 500 g/ha, spray, Brassica pekinensis disks. As to the method:
(§1) [table] To produce a suitable preparation of active compound, 1 part by weight of active compound is mixed with the stated amounts of solvents and emulsifier, and the concentrate is diluted with emulsifier-containing water to the desired concentration. Disks of Chinese cabbage (Brassica pekinensis) are sprayed with an active compound preparation of the desired concentration and, after drying, populated with larvae of the mustard beetle (Phaedon cochleariae). After the desired period of time, the effect in % is determined. 100% means that all beetle larvae have been killed; 0% means that none of the beetle larvae have been killed.

Data set [4] relates to caterpillars of the army worm (Spodoptera frugiperda). The data set is described as follows: Spodoptera frugiperda test (corn leaf disks sprayed). Type of data set: in vivo. Particulars: for Kill rate in % after 7 d: 500 g/ha, spray, Zea mays leaf disks. As to the method: as §1, with “corn leaves (Zea mays)” for “Chinese cabbage (Brassica pekinensis)”, “caterpillars” for “larvae”, “army worm (Spodoptera frugiperda).” for “mustard beetle (Phaedon cochleariae).”, “caterpillars” for “beetle larvae”

Data set [5] deals with green peach aphid (Myzus persicae). The data set is described as follows: Myzus test (spray treatment, Brassica pekinensis). The format is in vivo. Particulars: for Kill rate in % after 5 d: 500 g/ha, spray, Brassica pekinensis disks. The method, then: as §1, with “pekinensis) which are infested by all stages of the green peach aphid (Myzus persicae)” for “pekinensis)”, “concentration.” for “concentration and, after drying, populated with larvae of the mustard beetle (Phaedon cochleariae).”, “aphids” for “beetle larvae”

The structures appear in SMILES notation.

Consider `Cc1cc(C)c(C2=C(O)C(=O)N(Cc3ccccc3)C2=O)c(C)c1` [Example 5], for which, in data set [1], the “activity in the Phaedon larvae test” value is reported as “good activity”. For the same compound, in data set [1] (1000 ppm), the “Kill rate in % after 7 d” value was 100%.

Regarding `CC(C)N1C(=O)C(O)=C(c2cccc(C(F)(F)F)c2)C1=O` [Example 6], in data set [1], the “activity in the Phaedon larvae test” value is on record as “good activity”. Moreover, the “Kill rate in % after 7 d” value in data set [1] (1000 ppm) was determined as 100%.

For the compound `CC(C)(c1ccccc1)N1C(=O)C(O)=C(c2cccc(C(F)(F)F)c2)C1=O` [Example 7], in data set [1], the “activity in the Phaedon larvae test” value is on record as “good activity”. Also, the “Kill rate in % after 7 d” value in data set [1] (1000 ppm) is reported as 100%.

Consider `O=C1C(O)=C(c2ccc(C(F)(F)F)cc2)C(=O)N1CC(F)(F)F` [Example 8], for which the “activity in the Phaedon larvae test” value in data set [1] is recorded as “good activity”. The “Kill rate in % after 7 d” value in data set [1] (500 ppm) worked out at 100%.

As to `O=C1C(O)=C(c2ccc(OC(F)(F)F)cc2)C(=O)N1c1ccc(OC(F)(F)F)cc1` [Example 9], the “activity in the Phaedon larvae test” value in data set [1] is “good activity”. Besides, the “Kill rate in % after 7 d” value in data set [1] (500 ppm) stood at 90%. For the same compound, the logP entry in data set [2] is given as “logP = 4.12^a)”.

Consider `CCOC(=O)CCN1C(=O)C(O)=C(c2cc(Cl)cc(Cl)c2)C1=O` [Example 179], for which the logP entry in data set [2] is “logP = 2.80^a)”.

Consider `CCOC(=O)CCN1C(=O)C(O)=C(c2ccc(C)cc2)C1=O` [Example 180], for which, in data set [2], the logP entry is listed as “logP = 2.74^a)”.

As for `CCOc1cccc(F)c1CN1C(=O)C(O)=C(c2c(C)cc(C)cc2C)C1=O` [Example 181], in data set [2], the logP entry is given as “logP = 3.68^a)”.

Turning to `CCOc1cccc(F)c1CN1C(=O)C(O)=C(c2ccc(OC(F)(F)F)cc2)C1=O` [Example 182], the logP result in data set [2] was “logP = 4.13^a)”.

In the case of `CCOc1cccc(F)c1CN1C(=O)C(O)=C(c2ccc(Cl)cc2)C1=O` [Example 183], in data set [2], the logP entry is on record as “logP = 3.85^a)”.

In the case of `CCOc1cccc(F)c1CN1C(=O)C(O)=C(c2ccc(C(F)(F)F)cc2)C1=O` [Example 184], in data set [2], the logP entry is given as “logP = 3.81^a)”.

For `O=C1C(O)=C(c2ccc(Cl)cc2Br)C(=O)N1C1CCCC(C(F)(F)F)C1` (centres unmarked) [Example 186], in data set [3], the “activity in the Phaedon test (spray treatment)” value (“activity in the Phaedon test” below) is on record as “good activity” and the “Kill rate in % after 7 d” value is given as 100%. Besides, in data set [4], the “activity in the Spodoptera frugiperda test (spray)” value (shortened to “activity … (spray)”) was “good activity” and the “Kill rate in % after 7 d” value is on record as 100%. Moreover, the logP result in data set [2] is on record as “logP = 2.53^a)”.

For `O=C1C(O)=C(c2ccc(Br)cc2Cl)C(=O)N1C1CCCC(C(F)(F)F)C1` (centres unmarked) [Example 187], in data set [3], the “activity in the Phaedon test” value is reported as “good activity” and the “Kill rate in % after 7 d” value was 100%. In data set [2], the logP entry was “logP = 2.47^a)”.

As to `Cc1ccccc1C1=C(O)C(=O)N(C2CCCC(C(F)(F)F)C2)C1=O` (centres unmarked) [Example 188], in data set [3], the “activity in the Phaedon test” value is reported as “good activity” and the “Kill rate in % after 7 d” value is 100%. For the same compound, in data set [4], the “activity … (spray)” value is “good activity” and the “Kill rate in % after 7 d” value was 100%. Moreover, in data set [2], the logP entry is “logP = 3.11^a)”.

As to `COc1ccccc1C1=C(O)C(=O)N(C2CCCC(C(F)(F)F)C2)C1=O` (centres unmarked) [Example 189], in data set [3], the “activity in the Phaedon test” value is “good activity” and the “Kill rate in % after 7 d” value amounted to 83%. In addition, the logP result in data set [2] is given as “logP = 3.32^a)”.

As for `O=C1C(O)=C(c2ccccc2OC(F)(F)F)C(=O)N1C1CCCC(C(F)(F)F)C1` (centres unmarked) [Example 190], in data set [3], the “activity in the Phaedon test” value was “good activity” and the “Kill rate in % after 7 d” value is 100%. For the same compound, in data set [4], the “activity … (spray)” value was “good activity” and the “Kill rate in % after 7 d” value stood at 83%. The logP entry in data set [2] is recorded as “logP = 3.77^a)”.

As to `O=C1C(O)=C(c2ccccc2[N+](=O)[O-])C(=O)N1C1CCCC(C(F)(F)F)C1` (centres unmarked) [Example 194], in data set [3], the “activity in the Phaedon test” value was “good activity” and the “Kill rate in % after 7 d” value is 100%. The logP entry in data set [2] is reported as “logP = 3.01^a)”.

Consider `CC1CCCC(N2C(=O)C(O)=C(c3ccccc3Br)C2=O)C1` (centres unmarked) [Example 197], for which, in data set [3], the “activity in the Phaedon test” value was “good activity” and the “Kill rate in % after 7 d” value came out at 100%. Further, in data set [4], the “activity … (spray)” value is reported as “good activity” and the “Kill rate in % after 7 d” value was found to be 100%. Also, the logP result in data set [2] is “logP = 3.61^a)”.

For the compound `O=C1C(O)=C(c2cc(F)ccc2Br)C(=O)N1C1CCCC(C(F)(F)F)C1` (centres unmarked) [Example 198], in data set [3], the “activity in the Phaedon test” value is “good activity” and the “Kill rate in % after 7 d” value was found to be 100%. In addition, the logP entry in data set [2] is given as “logP = 3.46^a)”.

For `CC1CC(N2C(=O)C(O)=C(c3ccccc3Cl)C2=O)CC(C)(C)C1` (centres unmarked) [Example 199], in data set [3], the “activity in the Phaedon test” value is “good activity” and the “Kill rate in % after 7 d” value is on record as 100%. For the same compound, the logP entry in data set [2] is “logP = 4.18^a)”.

As to `CC1(C)CC(N2C(=O)C(O)=C(c3ccccc3Cl)C2=O)CC(C)(C)C1` [Example 200], in data set [3], the “activity in the Phaedon test” value is given as “good activity” and the “Kill rate in % after 7 d” value worked out at 100%.

With `O=C1C(OCc2ccc(Cl)cc2)=C(c2ccccc2Cl)C(=O)N1C1CCCC(C(F)(F)F)C1` (centres unmarked) [Example 203], in data set [3], the “activity in the Phaedon test” value is given as “good activity” and the “Kill rate in % after 7 d” value stood at 100%. In addition, in data set [4], the “activity … (spray)” value is “good activity” and the “Kill rate in % after 7 d” value worked out at 100%.

Take `O=C1C(OCc2ccccc2)=C(c2ccccc2Cl)C(=O)N1C1CCCC(C(F)(F)F)C1` (centres unmarked) [Example 204]: in data set [3], the “activity in the Phaedon test” value was “good activity” and the “Kill rate in % after 7 d” value is reported as 100%. Further, in data set [4], the “activity … (spray)” value is listed as “good activity” and the “Kill rate in % after 7 d” value came to 100%. Besides, the logP entry in data set [2] is listed as “logP = 5.01^a)”.

With `CC(C)(C)C(=O)OC1=C(c2ccccc2Cl)C(=O)N(C2CCCCC2C(F)(F)F)C1=O` (centres unmarked) [Example 206], in data set [5], the “activity in the Myzus test (spray, Brassica pekinensis)” value was “good activity” and the “Kill rate in % after 5 d” value is reported as 90%. In addition, the logP result in data set [2] is given as “logP = 5.22^a)”.

Regarding `Cc1ccc(S(=O)(=O)OC2=C(c3ccccc3Cl)C(=O)N(C3CCCC(C(F)(F)F)C3)C2=O)cc1` (centres unmarked) [Example 208], in data set [3], the “activity in the Phaedon test” value is recorded as “good activity” and the “Kill rate in % after 7 d” value is 100%. Besides, in data set [2], the logP entry is reported as “logP = 4.89^a)”.

`O=C1C(O)=C(c2c(F)cccc2F)C(=O)N1C1CCC(C(F)(F)F)CC1` (centres unmarked) [Example 209]: the “activity in the Phaedon larvae test” value in data set [1] was “good activity”. Besides, the “Kill rate in % after 7 d” value in data set [1] (500 ppm) was found to be 100%.

As for `O=C1C(O)=C(c2ccccc2Cl)C(=O)N1C1CCC(C(F)(F)F)CC1` (centres unmarked) [Example 210], in data set [1], the “activity in the Phaedon larvae test” value is “good activity”. Also, the “Kill rate in % after 7 d” value in data set [1] (500 ppm) was 100%. In addition, in data set [2], the logP entry is “logP = 3.59^a)”.

As for `O=C1C(O)=C(c2ccc(C(F)(F)F)cc2)C(=O)N1C1CCC(C(F)(F)F)CC1` (centres unmarked) [Example 211], the “activity in the Phaedon larvae test” value in data set [1] is “good activity”. The “Kill rate in % after 7 d” value in data set [1] (500 ppm) was 90%. For the same compound, in data set [2], the logP entry is given as “logP = 4.28^a)”.

Regarding `O=C1C(O)=C(c2ccccc2F)C(=O)N1C1CCCC(C(F)(F)F)C1` (centres unmarked) [Example 213], the “activity in the Phaedon larvae test” value in data set [1] is reported as “good activity”. Also, in data set [1] (500 ppm), the “Kill rate in % after 7 d” value is 100%. Moreover, the logP entry in data set [2] is on record as “logP = 3.42^a)”.

For the compound `Cc1ccccc1C1=C(O)C(=O)N(C2CC(C(F)(F)F)CC(C(F)(F)F)C2)C1=O` (centres unmarked) [Example 216], the “activity in the Phaedon larvae test” value in data set [1] is “good activity”. Further, the “Kill rate in % after 7 d” value in data set [1] (500 ppm) is listed as 100%. In addition, in data set [2], the logP entry is on record as “logP = 3.85^a)”.

Consider `O=C1C(O)=C(c2ccccc2Br)C(=O)N1C1CCCC(C(F)(F)F)C1` (centres unmarked) [Example 218], for which, in data set [3], the “activity in the Phaedon test” value is “good activity” and the “Kill rate in % after 7 d” value is given as 100%. In addition, in data set [5], the “activity in the Myzus test (spray, Brassica pekinensis)” value was “good activity” and the “Kill rate in % after 5 d” value came out at 80%. Also, in data set [4], the “activity … (spray)” value is reported as “good activity” and the “Kill rate in % after 7 d” value was determined as 100%.

Source of the values: US20090099192A1, “Substituted 1H-pyrrole-2,5-diones” (Bayer CropScience AG, priority 2004, published 2009).
